Assay results published in patent publication US7989613B2, “Inhibition of metallo-β-lactamase by RNA” (priority 2005, dated 2011).
Entries after “also recorded” stand apart in the source; their conditions may differ. Where two headings read alike, the source gives them in different places.

Assays:
[1] = target: B. cereus 5/B/6 metallo-β-lactamase (Bacillus cereus, UniProt P14488); settings: for IC50: […] cephalosporin C; for Ki: steady-state kinetics
Procedure: Assay of the purified B. cereus 5/B/6 metallo-β-lactamase and B. cereus 569/H/9 β-lactamase I. Metallo-β-lactamase activity assays using cephalosporin C as substrate were determined as previously reported (Myers and Shaw, 1989). The cephalosporin C absorbance maximum at 260 nm was monitored as a function of time (Davies et al., 1974). One unit of activity is generally defined as the amount of enzyme required to catalyze the hydrolysis of about 1 μmol of β-lactam substrate (cephalosporin C) per minute at 30° C. at pH 7.0. […] The assays were carried out at 30° C. in a 0.1 cm path length quartz cell and the total assay volume was 250 μL.
Reversible inhibition studies for metallo-β-lactamase. To test for reversible inhibition, metallo-β-lactamase was incubated with various concentrations of the possible inhibitors in 50 mM MOPS buffer, pH 7.0. The enzyme activity remaining was determined (Myers and Shaw, 1989).
Various assays were conducted with the 30-mer RNA in the presence of metallo-β-lactamase to determine its inhibition values (IC50, Ki, and Ki′). The 30-mer RNA was tested for inhibition of β-lactamase I and bovine carboxypeptidase A. The 30-mer RNA was also tested for inhibition of metallo-β-lactamase in the presence of Zn^2+.
30-mer RNA. The IC50 value for the 30-mer RNA was determined by measuring the rate of enzymatic hydrolysis of cephalosporin C with different amounts of the 30-mer RNA.

[2] = target: B. cereus 569/H/9 β-lactamase I (Bacillus cereus, UniProt P00809); settings: 250 nM of the 30-mer (23×IC50); 1.1 mM benzylpenicillin, 50 mM MOPS pH 7.0; listed as 30-mer
Chain of B. cereus 569/H/9 β-lactamase I (P00809 28-306): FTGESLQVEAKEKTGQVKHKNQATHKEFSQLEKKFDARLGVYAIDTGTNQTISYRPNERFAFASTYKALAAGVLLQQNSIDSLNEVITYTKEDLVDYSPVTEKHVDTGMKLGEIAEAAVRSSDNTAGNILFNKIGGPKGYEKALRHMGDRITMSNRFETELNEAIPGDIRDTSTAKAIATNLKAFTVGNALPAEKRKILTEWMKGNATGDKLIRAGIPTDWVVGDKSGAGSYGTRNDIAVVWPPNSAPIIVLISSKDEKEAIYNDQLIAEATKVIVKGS
Procedure: The β-lactamase I activity assays used was modified from Davies et al. (1974), which described a general method of β-lactamase I activity assays. Briefly, the enzyme was incubated with 20 mM EDTA (pH 7.0) for 15 min. at room temperature prior to the assay. The enzymatic hydrolysis of 1.1 mM benzylpenicillin in […] MOPS (pH 7.0) and 1 mM EDTA was continuously monitored at 231 nm at 30° C. in a 1-cm pathlength quartz cell in a total volume of 1 mL. One unit of β-lactamase activity was generally defined as the amount of enzyme required to hydrolyze about one μmole of substrate/min. at 30° C. at pH 7.0.
An experiment was performed to test the specificity of inhibition of the 30-mer (Seq ID No.:6). The inhibition of B. cereus 569/H/9 β-lactamase I (Seq ID No.:7) was tested using various concentrations of the 30-mer RNA. The concentration of the substrate (benzylpenicillin) was 1.1 mM in the buffer (50 mM MOPS (pH 7.0)/1 […] EDTA).

[3] = target: T1, bovine carboxypeptidase A (Bos taurus, UniProt P00730); experiment: Inhibition of carboxypeptidase A (hydrolysis of hippuryl-L-phenylalanine, 254 nm); assay type: biochemical; settings: 250 nM of the 30-mer (23×IC50), 1 mM hippuryl-L-phenylalanine, 0.05 M Tris-HCl pH 7.5, 0.5 M NaCl
T1 construct: purchased Sigma
T1 sequence (P00730 111-419): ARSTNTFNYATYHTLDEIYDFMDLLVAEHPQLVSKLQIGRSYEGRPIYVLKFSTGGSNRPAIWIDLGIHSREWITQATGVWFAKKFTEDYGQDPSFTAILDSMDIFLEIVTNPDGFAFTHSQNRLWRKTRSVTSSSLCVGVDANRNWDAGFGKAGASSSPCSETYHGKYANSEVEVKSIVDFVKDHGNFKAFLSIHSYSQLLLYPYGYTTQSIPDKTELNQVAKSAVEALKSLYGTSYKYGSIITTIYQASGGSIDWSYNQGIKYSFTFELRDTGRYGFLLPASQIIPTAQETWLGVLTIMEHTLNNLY
Procedure: Assay of bovine carboxypeptidase A. The assay of bovine carboxypeptidase A is based on the method of Folk and Schirmer (1963). The rate of hydrolysis of hippuryl-L-phenylalanine is determined by monitoring the increase in absorbance at 254 nm (25° C., pH 7.5). The enzyme was dissolved in 10% lithium chloride to a concentration of 1-3 units per mL. Hippuryl-L-phenylalanine (0.001 M) was dissolved in 0.05 M Tris-HCl, pH 7.5, with 0.5 M sodium chloride. In a 1-cm pathlength cuvette, 1.0 mL of substrate was added and incubated in the spectrophotometer at 25° C. for 3-4 minutes to reach temperature equilibration and to establish blank rate. 50 μL of diluted enzyme was added to record the increase in AbS254.
In addition, the zinc dependent bovine carboxypeptidase A was used to test the specificity of inhibition by this 30-mer. […] The concentration of the substrate (hippuryl-L-phenylalanine) was 1 mM in the buffer (0.05 M Tris-HCl, pH 7.5, with 0.5 M sodium chloride).

Chain of B. cereus 5/B/6 metallo-β-lactamase (P14488 29-256, looked up, natural form): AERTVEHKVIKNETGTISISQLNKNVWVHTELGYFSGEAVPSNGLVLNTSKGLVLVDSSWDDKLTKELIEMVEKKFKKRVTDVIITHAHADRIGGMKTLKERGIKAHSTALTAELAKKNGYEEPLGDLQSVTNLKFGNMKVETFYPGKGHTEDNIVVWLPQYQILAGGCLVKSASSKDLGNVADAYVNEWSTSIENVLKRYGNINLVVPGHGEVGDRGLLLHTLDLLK

## 5′-UGGCUGCAGGGUCUGGCCCCCCGUUUGGUG-3′ (UGGCUGCAGGGUCUGGCCCCCCGUUUGGUG; chemistry not given here) [30-mer RNA, 30-mer RNA aptamer selected by twelve rounds of SELEX against B. cereus 5/B/6 metallo-β-lactamase]
[1]; read-out: IC50 for B. cereus 5/B/6 metallo-β-lactamase in the presence of Zn2+ ions, 50 mM MOPS and 1 mM ZnSO4, pH 7.0
  IC50: 19300 nM
[1]; read-out: IC50 for B. cereus 5/B/6 metallo-β-lactamase, 50 mM MOPS pH 7.0, no added Zn2+
  IC50: 11 nM
[1]; read-out: Ki (dissociation constant for the inhibitor from the enzyme-inhibitor complex), slope replot
  Ki: 2 nM
[1]; read-out: Ki′ (dissociation constant for the inhibitor from the enzyme-substrate-inhibitor complex), intercept replot
  Ki: 15 nM
[1]; stated in words
  IC50 / inhibition of metallo-β-lactamase, range in words: nanomolar range
[1]; steady-state kinetic study, Lineweaver-Burk plot
  type of inhibition: noncompetitive inhibition
[2]
  effect on the activity of B. cereus 569/H/9 β-lactamase I: no effect
[3]
  effect on the activity of carboxypeptidase A: lack of inhibition; also recorded: do not show inhibition
[3]; listed as 30-mer
  effect on the activity of carboxypeptidase A: no effect
